From patent US20240051946A1, “TARGETED PROTEIN DEGRADATION OF PARP14 FOR USE IN THERAPY” (Ribon Therapeutics, Inc., priority 2022, published 2024)
Structures can show the parent of a compound that is named as a salt.

Target: T1, PARP14 (Homo sapiens, UniProt Q460N5)
T1 construct: engineered to contain a HiBiT tag on both alleles of the PARP14 gene; endogenous in cells; host or cells: Jurkat cells stably expressing LgBiT (Promega), with CRISPR/Cas9 knock-in of HiBiT at the PARP14 locus
Assay: HiBiT assay for the degradation of PARP14 (HiBiT tagged PARP14 in LgBiT expressing Jurkat cells)
Format: cell-based
Details: Assay B, 37° C. for 2 or 24 hours, luminescence, read-out: DC50
Description: Jurkat cells stably transfected with LgBiT (Promega) were engineered to contain a HiBiT tag on both alleles of the PARP14 gene (Genbank Accession Number: NM_017554) via CRISPR/Cas9 editing. The HiBiT tag is an 11 amino acid tag created by Promega that associates with LgBiT protein to form the NanoLuc® tag on the C-terminus of PARP14. Clones were isolated and confirmed for the HiBiT tag via Sanger sequencing.
Degradation of PARP14 protein was assessed by measuring the luminescence of the HiBiT tag associating with the LgBiT protein as a proxy for the PARP14 protein. Jurkat cells were diluted to 250,000 cells per mL and then added to assay plate (Corning 3574) using a Multidrop (Thermo Fisher) to add 20 μL per well of the 384 well plate, resulting in 5,000 cells per well. 20 nL of a dose response curve diluted in DMSO of each test compound was added to the cell plate using a Mosquito (TTP Labtech) and the plate was incubated at 37° C. for 2 or 24 hours. Assay plate was brought to room temperature then 5 μL per well of Live Cell Substrate (Promega) was added to the plate. Luminescence was measured on an Envision (Perkin Elmer).
The average DMSO was calculated from 32 wells containing 0.1% DMSO only in columns 12 and 24 of the assay plate. The % of DMSO values were calculated as described below: […]
The % of DMSO values were plotted as a function of compound concentration and the following 4-parameter fit was applied to derive the DC50 values:
where top, bottom, and Hill Coefficient are allowed to float. Y is the % of DMSO and X is the compound concentration.
DC50 data for the Example compounds is provided below in Table 2 (“+” is <0.03 μM; “++” is ≥0.03 μM).

T1 sequence (Q460N5 whole entry): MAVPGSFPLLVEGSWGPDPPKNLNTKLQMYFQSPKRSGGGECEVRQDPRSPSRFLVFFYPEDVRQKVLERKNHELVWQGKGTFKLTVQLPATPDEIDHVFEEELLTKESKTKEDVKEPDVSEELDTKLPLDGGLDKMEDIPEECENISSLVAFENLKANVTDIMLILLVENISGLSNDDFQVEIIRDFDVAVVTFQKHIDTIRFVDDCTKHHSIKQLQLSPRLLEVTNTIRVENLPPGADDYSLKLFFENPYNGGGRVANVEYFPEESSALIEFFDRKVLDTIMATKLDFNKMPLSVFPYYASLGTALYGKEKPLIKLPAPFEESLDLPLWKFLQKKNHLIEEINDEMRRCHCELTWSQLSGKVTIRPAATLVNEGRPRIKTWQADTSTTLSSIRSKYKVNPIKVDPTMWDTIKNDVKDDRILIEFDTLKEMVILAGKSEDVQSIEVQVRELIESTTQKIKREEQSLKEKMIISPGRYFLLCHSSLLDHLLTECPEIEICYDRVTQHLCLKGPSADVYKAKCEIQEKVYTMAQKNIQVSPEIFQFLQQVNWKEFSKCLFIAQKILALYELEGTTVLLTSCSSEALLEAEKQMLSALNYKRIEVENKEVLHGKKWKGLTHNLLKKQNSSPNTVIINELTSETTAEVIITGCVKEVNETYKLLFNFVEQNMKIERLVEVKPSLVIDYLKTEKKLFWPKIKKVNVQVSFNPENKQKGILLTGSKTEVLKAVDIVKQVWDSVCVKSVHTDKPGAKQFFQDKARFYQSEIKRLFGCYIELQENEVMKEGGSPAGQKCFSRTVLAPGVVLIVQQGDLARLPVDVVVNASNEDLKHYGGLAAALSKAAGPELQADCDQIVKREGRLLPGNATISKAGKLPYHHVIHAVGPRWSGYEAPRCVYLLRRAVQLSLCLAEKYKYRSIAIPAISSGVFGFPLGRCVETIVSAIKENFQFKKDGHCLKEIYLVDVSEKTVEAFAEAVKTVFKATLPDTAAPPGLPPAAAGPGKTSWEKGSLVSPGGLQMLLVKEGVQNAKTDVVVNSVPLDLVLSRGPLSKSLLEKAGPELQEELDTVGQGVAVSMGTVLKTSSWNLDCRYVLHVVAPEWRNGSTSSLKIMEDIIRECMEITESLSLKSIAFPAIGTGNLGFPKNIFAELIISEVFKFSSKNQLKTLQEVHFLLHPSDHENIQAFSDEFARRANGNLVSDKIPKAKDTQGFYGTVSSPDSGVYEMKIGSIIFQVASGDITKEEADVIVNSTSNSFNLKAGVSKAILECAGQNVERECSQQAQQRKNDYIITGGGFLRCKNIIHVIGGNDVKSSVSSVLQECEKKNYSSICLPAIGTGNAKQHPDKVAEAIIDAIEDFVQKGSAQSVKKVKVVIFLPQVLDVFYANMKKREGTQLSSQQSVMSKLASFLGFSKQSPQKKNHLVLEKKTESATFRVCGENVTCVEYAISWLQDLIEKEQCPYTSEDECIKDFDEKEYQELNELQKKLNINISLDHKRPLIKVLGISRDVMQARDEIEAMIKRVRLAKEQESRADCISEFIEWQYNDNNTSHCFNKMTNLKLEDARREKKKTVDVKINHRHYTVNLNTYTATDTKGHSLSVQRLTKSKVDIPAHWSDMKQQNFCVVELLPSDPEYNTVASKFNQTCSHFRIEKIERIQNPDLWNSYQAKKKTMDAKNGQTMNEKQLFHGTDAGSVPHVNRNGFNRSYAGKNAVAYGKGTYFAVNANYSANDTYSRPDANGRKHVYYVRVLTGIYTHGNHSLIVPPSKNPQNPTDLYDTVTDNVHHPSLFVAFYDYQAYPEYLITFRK

| DC50 | SMILES |
| --- | --- |
| < 30 nM | O=C1CCC(Nc2ccc(N3CCN(CCN4CCC(SCc5nc6cc(OCC7CC7)cc(F)c6c(=O)[nH]5)CC4)CC3)c(F)c2)C(=O)N1 (centres unmarked) [Example 47, 3-((4-(4-(2-(4-(((7-(cyclopropylmethoxy)-5-fluoro-4-oxo-3,4-dihydroquinazolin-2-yl)methyl)thio)piperidin-1-yl)ethyl)piperazin-1-yl)-3-fluorophenyl)amino)piperidine-2,6-dione] |
| < 30 nM | O=C1CCC(Nc2ccc(N3CCC(N4CC(N5CCC(SCc6nc7cc(OCC8CC8)cc(F)c7c(=O)[nH]6)CC5)C4)CC3)c(F)c2)C(=O)N1 (centres unmarked) [Example 48, 3-((4-(4-(3-(4-(((7-(cyclopropylmethoxy)-5-fluoro-4-oxo-3,4-dihydroquinazolin-2-yl)methyl)thio)piperidin-1-yl)azetidin-1-yl)piperidin-1-yl)-3-fluorophenyl)amino)piperidine-2,6-dione] |
| < 30 nM | O=C1CCC(N2C(=O)c3cccc4c(N5CCN(CCN6CCC(SCc7nc8cc(OCC9CC9)cc(F)c8c(=O)[nH]7)CC6)CC5)ccc2c34)C(=O)N1 (centres unmarked) [Example 49, 3-(6-(4-(2-(4-(((7-(cyclopropylmethoxy)-5-fluoro-4-oxo-3,4-dihydroquinazolin-2-yl)methyl)thio)piperidin-1-yl)ethyl)piperazin-1-yl)-2-oxobenzo[cd]indol-1(2H)-yl)piperidine-2,6-dione] |
| < 30 nM | O=C1CCC(N2Cc3cc(N4CCC(CN5CCC(SCc6nc7cc(OCC8CC8)cc(F)c7c(=O)[nH]6)CC5)CC4)ccc3C2=O)C(=O)N1 (centres unmarked) [Example 50, 3-(5-(4-((4-(((7-(cyclopropylmethoxy)-5-fluoro-4-oxo-3,4-dihydroquinazolin-2-yl)methyl)thio)piperidin-1-yl)methyl)piperidin-1-yl)-1-oxoisoindolin-2-yl)piperidine-2,6-dione] |
| < 30 nM | O=C1CCC(Nc2ccc(N3CCC(N4CC(N5CCC(SCc6nc7cc(OCC8CCOCC8)cc(F)c7c(=O)[nH]6)CC5)C4)CC3)c(F)c2)C(=O)N1 (centres unmarked) [Example 51, 3-((3-fluoro-4-(4-(3-(4-(((5-fluoro-4-oxo-7-((tetrahydro-2H-pyran-4-yl)methoxy)-3,4-dihydroquinazolin-2-yl)methyl)thio)piperidin-1-yl)azetidin-1-yl)piperidin-1-yl)phenyl)amino)piperidine-2,6-dione formate] |
| < 30 nM | O=C1CCC(Nc2ccc(N3CCC(N4CCC(SCc5nc6cc(OCC7CCOCC7)cc(F)c6c(=O)[nH]5)CC4)CC3)c(F)c2)C(=O)N1 (centres unmarked) [Example 52, 3-((3-fluoro-4-(4-(((5-fluoro-4-oxo-7-((tetrahydro-2H-pyran-4-yl)methoxy)-3,4-dihydroquinazolin-2-yl)methyl)thio)-[1,4′-bipiperidin]-1′-yl)phenyl)amino)piperidine-2,6-dione] |
| < 30 nM | O=C1CCC(Nc2ccc(N3CCC(N4CCC(OCc5nc6cc(OCC7CC7)cc(F)c6c(=O)[nH]5)CC4)CC3)c(F)c2)C(=O)N1 (centres unmarked) [Example 53, 3-((4-(4-((7-(cyclopropylmethoxy)-5-fluoro-4-oxo-3,4-dihydroquinazolin-2-yl)methoxy)-[1,4′-bipiperidin]-1′-yl)-3-fluorophenyl)amino)piperidine-2,6-dione] |
| < 30 nM | O=C1CCC(Nc2ccc(N3CCC(N4CCC(SCc5nc6cc(OCC7CC7)cc(F)c6c(=O)[nH]5)CC4)CC3)c(F)c2)C(=O)N1 (centres unmarked) [Example 54, 3-((4-(4-(((7-(cyclopropylmethoxy)-5-fluoro-4-oxo-3,4-dihydroquinazolin-2-yl)methyl)thio)-[1,4′-bipiperidin]-1′-yl)-3-fluorophenyl)amino)piperidine-2,6-dione formate] |
| < 30 nM | O=C1CCC(Nc2ccc(N3CCN(CCO[C@H]4CC[C@H](SCc5nc6cc(OCC7CC7)cc(F)c6c(=O)[nH]5)CC4)CC3)c(F)c2)C(=O)N1 (some centres unmarked) [Example 55, 3-((4-(4-(2-(((1r,4r)-4-(((7-(cyclopropylmethoxy)-5-fluoro-4-oxo-3,4-dihydroquinazolin-2-yl)methyl)thio)cyclohexyl)oxy)ethyl)piperazin-1-yl)-3-fluorophenyl)amino)piperidine-2,6-dione] |
| < 30 nM | O=C1CCC(Nc2ccc(N3CCC(CN4CCC(SCc5nc6cc(OCC7CC7)cc(F)c6c(=O)[nH]5)CC4)CC3)c(F)c2)C(=O)N1 (centres unmarked) [Example 56, 3-((4-(4-((4-(((7-(cyclopropylmethoxy)-5-fluoro-4-oxo-3,4-dihydroquinazolin-2-yl)methyl)thio)piperidin-1-yl)methyl)piperidin-1-yl)-3-fluorophenyl)amino)piperidine-2,6-dione formate] |
| < 30 nM | O=C1CCC(Nc2ccc(N3CCC(N4CCC(SCc5nc6cc(OCC7CC7)cc(F)c6c(=O)[nH]5)CC4)CC3)c(C(F)(F)F)c2)C(=O)N1 (centres unmarked) [Example 57, 3-((4-(4-(((7-(cyclopropylmethoxy)-5-fluoro-4-oxo-3,4-dihydroquinazolin-2-yl)methyl)thio)-[1,4′-bipiperidin]-1′-yl)-3-(trifluoromethyl)phenyl)amino)piperidine-2,6-dione] |
| < 30 nM | O=C1CCC(Nc2cc(F)c(N3CCC(N4CCC(SCc5nc6cc(OCC7CC7)cc(F)c6c(=O)[nH]5)CC4)CC3)cc2F)C(=O)N1 (centres unmarked) [Example 58, 3-((4-(4-(((7-(cyclopropylmethoxy)-5-fluoro-4-oxo-3,4-dihydroquinazolin-2-yl)methyl)thio)-[1,4′-bipiperidin]-1′-yl)-2,5-difluorophenyl)amino)piperidine-2,6-dione] |
| < 30 nM | O=C1CCC(Nc2ccc(N3CCC(N4CCC(SCc5nc6cc(OCC7CC7)cc(F)c6c(=O)[nH]5)CC4)C3)c(F)c2)C(=O)N1 (centres unmarked) [Example 59, 3-((4-(3-(4-(((7-(cyclopropylmethoxy)-5-fluoro-4-oxo-3,4-dihydroquinazolin-2-yl)methyl)thio)piperidin-1-yl)pyrrolidin-1-yl)-3-fluorophenyl)amino)piperidine-2,6-dione] |
| < 30 nM | O=C1CCN(c2ccc(N3CCC(N4CCC(SCc5nc6cc(OCC7CC7)cc(F)c6c(=O)[nH]5)CC4)CC3)c(F)c2)C(=O)N1 [Example 60, 1-(4-(4-(((7-(cyclopropylmethoxy)-5-fluoro-4-oxo-3,4-dihydroquinazolin-2-yl)methyl)thio)-[1,4′-bipiperidin]-1′-yl)-3-fluorophenyl)dihydropyrimidine-2,4(1H,3H)-dione] |
| < 30 nM | Cn1nc(N2CCC(=O)NC2=O)c2ccc(N3CCC(N4CCC(SCc5nc6cc(OCC7CC7)cc(F)c6c(=O)[nH]5)CC4)CC3)cc21 [Example 61, 1-(6-(4-(((7-(cyclopropylmethoxy)-5-fluoro-4-oxo-3,4-dihydroquinazolin-2-yl)methyl)thio)-[1,4′-bipiperidin]-1′-yl)-1-methyl-1H-indazol-3-yl)dihydropyrimidine-2,4(1H,3H)-dione] |
| < 30 nM | O=C1CCN(c2cncc3c(N4CCC(N5CCC(SCc6nc7cc(OCC8CC8)cc(F)c7c(=O)[nH]6)CC5)CC4)cccc23)C(=O)N1 [Example 62, 1-(8-(4-(((7-(cyclopropylmethoxy)-5-fluoro-4-oxo-3,4-dihydroquinazolin-2-yl)methyl)thio)-[1,4′-bipiperidin]-1′-yl)isoquinolin-4-yl)dihydropyrimidine-2,4(1H,3H)-dione] |
| < 30 nM | O=C1CCC(Nc2ccc(N3CCC(N4CCN(CCc5nc6cc(OCC7CC7)cc(F)c6c(=O)[nH]5)CC4)CC3)c(F)c2)C(=O)N1 (centres unmarked) [Example 63, 3-((4-(4-(4-(2-(7-(cyclopropylmethoxy)-5-fluoro-4-oxo-3,4-dihydroquinazolin-2-yl)ethyl)piperazin-1-yl)piperidin-1-yl)-3-fluorophenyl)amino)piperidine-2,6-dione formic salt] |
| < 30 nM | O=C1CCC(Nc2ccc(N3CCC(C4CCN(CCc5nc6cc(OCC7CC7)cc(F)c6c(=O)[nH]5)CC4)CC3)c(F)c2)C(=O)N1 (centres unmarked) [Example 64, 3-((4-(1′-(2-(7-(cyclopropylmethoxy)-5-fluoro-4-oxo-3,4-dihydroquinazolin-2-yl)ethyl)-[4,4′-bipiperidin]-1-yl)-3-fluorophenyl)amino)piperidine-2,6-dione] |
| < 30 nM | O=C1CCC(Nc2ccc(N3CCC(N4CCC(CCc5nc6cc(OCC7CC7)cc(F)c6c(=O)[nH]5)CC4)CC3)c(F)c2)C(=O)N1 (centres unmarked) [Example 65, 3-((4-(4-(2-(7-(cyclopropylmethoxy)-5-fluoro-4-oxo-3,4-dihydroquinazolin-2-yl)ethyl)-[1,4′-bipiperidin]-1′-yl)-3-fluorophenyl)amino)piperidine-2,6-dione] |
| < 30 nM | O=C1CCC(Nc2ccc(N3CC(N4CCC(SCc5nc6cc(OCC7CC7)cc(F)c6c(=O)[nH]5)CC4)C3)c(F)c2)C(=O)N1 (centres unmarked) [Example 66, 3-((4-(3-(4-(((7-(cyclopropylmethoxy)-5-fluoro-4-oxo-3,4-dihydroquinazolin-2-yl)methyl)thio)piperidin-1-yl)azetidin-1-yl)-3-fluorophenyl)amino)piperidine-2,6-dione] |
